Reference: US20110082130A1 (LIGAND PHARMACEUTICALS, INC., priority 2006, published 2011)
pKi: −log10 of the molar value.

The compounds below were run against T1, chimeric human H3 receptor (Homo sapiens, UniProt Q9Y5N1) (assay: Chimeric human H3 receptor GTP binding assay (agonist-stimulated GTP-gamma35S binding, Example 7)). Settings: Table I; P2 membranes of Sf9 cells, 1 μM histamine as agonist, Ki from IC50 by Cheng-Prusoff.
T1 construct: made in house; host or cells: Sf9 insect cells (baculovirus); P2 membrane preparation
Format: biochemical
How it was run: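 Sf9 membranes co-expressing chimeric human H3 receptor and heterotrimeric G-protein, 35 μg/tube, in pH 7.4 Tris buffer with 10 μM GDP. Test compounds (10^−10–10^−6 M) competed against 1 μM histamine, […] GTP-gamma35S, 60 min at room temperature. Filter-bound radioactivity counted; IC50 converted to Ki by Cheng-Prusoff. Agonism/inverse agonism tested without histamine (EC50).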

T1 sequence (Q9Y5N1 with tags, fused parts or gaps): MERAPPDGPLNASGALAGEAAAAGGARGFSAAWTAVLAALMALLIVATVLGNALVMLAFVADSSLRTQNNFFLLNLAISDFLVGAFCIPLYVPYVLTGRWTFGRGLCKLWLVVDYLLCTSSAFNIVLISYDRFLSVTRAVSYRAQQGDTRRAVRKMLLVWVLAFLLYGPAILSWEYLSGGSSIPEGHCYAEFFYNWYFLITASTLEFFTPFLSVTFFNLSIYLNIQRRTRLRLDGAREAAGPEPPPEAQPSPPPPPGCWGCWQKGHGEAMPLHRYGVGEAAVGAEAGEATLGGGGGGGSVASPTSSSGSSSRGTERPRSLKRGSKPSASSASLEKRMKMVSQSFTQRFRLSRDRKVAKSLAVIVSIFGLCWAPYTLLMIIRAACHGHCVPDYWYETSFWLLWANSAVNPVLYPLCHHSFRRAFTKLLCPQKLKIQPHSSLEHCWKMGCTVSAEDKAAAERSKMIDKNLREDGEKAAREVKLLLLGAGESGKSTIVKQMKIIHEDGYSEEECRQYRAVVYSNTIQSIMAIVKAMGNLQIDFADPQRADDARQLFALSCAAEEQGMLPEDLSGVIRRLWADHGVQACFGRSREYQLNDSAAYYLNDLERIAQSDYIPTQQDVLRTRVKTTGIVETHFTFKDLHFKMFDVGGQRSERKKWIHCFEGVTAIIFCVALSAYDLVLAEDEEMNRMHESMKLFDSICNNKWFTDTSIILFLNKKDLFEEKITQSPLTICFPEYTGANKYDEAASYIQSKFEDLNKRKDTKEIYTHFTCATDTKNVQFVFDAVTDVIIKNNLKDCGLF

pKi, > 6.00:
O=C(CN1CCc2ccccc2C1)N1CCN(C2CCCC2)CC1 [Compound 46, 2-[2-(4-cyclopentylpiperazin-1-yl)-2-oxoethyl]-1,2,3,4-tetrahydroisoquinoline]
COc1ccc2c(c1)CCN(CC(=O)N1CCN(C3CCC3)CC1)C2 [Compound 60, 2-[2-(4-cyclobutylpiperazin-1-yl)-2-oxoethyl]-6-methoxy-1,2,3,4-tetrahydroisoquinoline]
COc1cc2c(cc1OC)CN(CC(=O)N1CCN(C3CCCCC3)CC1)CC2 [Compound 50, 2-[2-(4-cyclohexylpiperazin-1-yl)-2-oxoethyl]-6,7-dimethoxy-1,2,3,4-tetrahydroisoquinoline]

Same assay, conditions: Table II "Ki", symbol *; assay of Example 7

pKi, > 6.00:
COC[C@@H]1CCCN1c1ccc2c(n1)CCN(CC(=O)N1CCN(C3CCC3)CC1)C2 [Compound 678, 6-[2-(4-cyclobutylpiperazin-1-yl)-2-oxoethyl]-2-[(2S)-2-(methoxymethyl)pyrrolidin-1-yl]-5,6,7,8-tetrahydro-1,6-naphthyridine]
CC1CCCCN1c1ccc2c(n1)CCN(CC(=O)N1CCN(C3CCC3)CC1)C2 (stereo not drawn) [Compound 676, 6-[2-(4-cyclobutylpiperazin-1-yl)-2-oxoethyl]-2-(2-methylpiperidin-1-yl)-5,6,7,8-tetrahydro-1,6-naphthyridine]
COCCNc1ccc2c(n1)CCN(CC(=O)N1CCN(C3CCC3)CC1)C2 [Compound 663, 6-[2-(4-cyclobutylpiperazin-1-yl)-2-oxoethyl]-N-(2-methoxyethyl)-5,6,7,8-tetrahydro-1,6-naphthyridin-2-amine]
O=C(CN1CCc2nc(NC3CCCC3)ccc2C1)N1CCN(C2CCC2)CC1 [Compound 656, 6-[2-(4-cyclobutylpiperazin-1-yl)-2-oxoethyl]-N-cyclopentyl-5,6,7,8-tetrahydro-1,6-naphthyridin-2-amine]
CN(C)Cc1ccc(-c2ccc3c(c2)CCN(CC(=O)N2CCN(C4CCC4)CC2)C3)cc1 [Compound 642, 1-(4-{2-[2-(4-cyclobutylpiperazin-1-yl)-2-oxoethyl]-1,2,3,4-tetrahydroisoquinolin-6-yl}phenyl)-N,N-dimethylmethanamine]

Same assay, conditions: Table II; "*" = Ki in assay of Example 7 less than 1 micromolar

pKi, > 6.00:
CS(=O)(=O)c1cccc(-c2ccc3c(c2)CCN(CC(=O)N2CCN(C4CCC4)CC2)C3)c1 [Compound 84, 2-[2-(4-cyclobutylpiperazin-1-yl)-2-oxoethyl]-6-[3-(methylsulfonyl)phenyl]-1,2,3,4-tetrahydroisoquinoline]
CC(C)(C)c1ncc2c(n1)CCN(CC(=O)N1CCN(C3CCC3)CC1)C2 [Compound 277, 2-tert-butyl-6-[2-(4-cyclobutylpiperazin-1-yl)-2-oxoethyl]-5,6,7,8-tetrahydropyrido[4,3-d]pyrimidine]
O=C(CN1CCc2c(cnn2-c2ccc(Br)cc2)C1)N1CCN(C2CCC2)CC1 [Compound 90, 1-(4-bromophenyl)-5-[2-(4-cyclobutylpiperazin-1-yl)-2-oxoethyl]-4,5,6,7-tetrahydro-1H-pyrazolo[4,3-c]pyridine]
N#Cc1nc2c(s1)CN(CC(=O)N1CCN(C3CCC3)CC1)CC2 [Compound 102, 5-[2-(4-cyclobutylpiperazin-1-yl)-2-oxoethyl]-4,5,6,7-tetrahydro[1,3]thiazolo [5,4-c]pyridine-2-carbonitrile]
O=C(CN1CCc2cc(O)ccc2C1)N1CCN(C2CCC2)CC1 [Compound 195, 2-[2-(4-cyclobutylpiperazin-1-yl)-2-oxoethyl]-1,2,3,4-tetrahydroisoquinolin-6-ol]
Cc1ccc(-n2cc3c(n2)CCN(CC(=O)N2CCN(C4CCC4)CC2)C3)nc1 [Compound 261, 5-[2-(4-cyclobutylpiperazin-1-yl)-2-oxoethyl]-2-(5-methylpyridin-2-yl)-4,5,6,7-tetrahydro-2H-pyrazolo[4,3-c]pyridine]
CC1CN(C(=O)CN2CCc3nc(C(=O)NC4CCC4)ccc3C2)CCN1C1CCC1 (stereo not drawn) [Compound 126, N-cyclobutyl-6-[2-(4-cyclobutyl-3-methylpiperazin-1-yl)-2-oxoethyl)-5,6,7,8-tetrahydro-1,6-naphthyridine-2-carboxamide]
CC1CCCN1C(=O)c1ccc2c(c1)CCN(CC(=O)N1CCN(C3CCC3)CC1)C2 (stereo not drawn) [Compound 87, 2-[2-(4-cyclobutylpiperazin-1-yl)-2-oxoethyl]-6-[(2-methylpyrrolidin-1-yl)carbonyl]-1,2,3,4-tetrahydroisoquinoline]
O=C(CN1CCc2nc(-c3ccncc3)ncc2C1)N1CCN(C2CCC2)CC1 [Compound 137, 6-[2-(4-cyclobutylpiperazin-1-yl)-2-oxoethyl]-2-pyridin-4-yl-5,6,7,8-tetrahydropyrido[4,3-d]pyrimidine]
CC1CCC[C@H]2CN(C(=O)CN3CCc4nc(N5CCOCC5)ncc4C3)CCN12 (stereo partly drawn) [Compound 186, 6-[2-(6-methyloctahydro-2H-pyrido[1,2-a]pyrazin-2-yl)-2-oxoethyl]-2-morpholin-4-yl-5,6,7,8-tetrahydropyrido[4,3-d]pyrimidine]

Same assay, conditions: assay of Example 7; "*" in Ki of Table II

pKi, > 6.00:
O=C(CN1CCc2nc(-c3ccccc3C(F)(F)F)sc2C1)N1CCN(C2CCC2)CC1 [Compound 360, 5-[2-(4-cyclobutylpiperazin-1-yl)-2-oxoethyl]-2-[2-(trifluoromethyl)phenyl]-4,5,6,7-tetrahydro[1,3]thiazolo [5,4-c]pyridine]
Cc1ccc(-c2nc3c(s2)CN(CC(=O)N2CCN(C4CCC4)CC2)CC3)cc1 [Compound 305, 5-[2-(4-cyclobutylpiperazin-1-yl)-2-oxoethyl]-2-(4-methylphenyl)-4,5,6,7-tetrahydro[1,3]thiazolo [5,4-c]pyridine]
O=C(CN1CCc2nc(-c3ccc(F)c(Cl)c3)sc2C1)N1CCN(C2CCC2)CC1 [Compound 346, 2-(3-chloro-4-fluorophenyl)-5-[2-(4-cyclobutylpiperazin-1-yl)-2-oxoethyl]-4,5,6,7-tetrahydro[1,3]thiazolo [5,4-c]pyridine]
COc1cc(F)c(-c2nc3c(s2)CN(CC(=O)N2CCN(C4CCC4)CC2)CC3)cc1F [Compound 323, 5-[2-(4-cyclobutylpiperazin-1-yl)-2-oxoethyl]-2-(2,5-difluoro-4-methoxyphenyl)-4,5,6,7-tetrahydro[1,3]thiazolo [5,4-c]pyridine]
O=C(CN1CCc2nc(-c3ccc(OC(F)(F)F)cc3)sc2C1)N1CCN(C2CCC2)CC1 [Compound 316, 5-[2-(4-cyclobutylpiperazin-1-yl)-2-oxoethyl]-2-[4-(trifluoromethoxy)phenyl]-4,5,6,7-tetrahydro[1,3]thiazolo [5,4-c]pyridine]
CCOc1ccccc1-c1nc2c(s1)CN(CC(=O)N1CCN(C3CCC3)CC1)CC2 [Compound 341, 5-[2-(4-cyclobutylpiperazin-1-yl)-2-oxoethyl]-2-(2-ethoxyphenyl)-4,5,6,7-tetrahydro[1,3]thiazolo [5,4-c]pyridine]
